Results from ChEMBL document CHEMBL1641415, “Discovery of a novel hybrid from finasteride and epristeride as 5α-reductase inhibitor” (Bioorg Med Chem Lett, 2011).

Assays:
[1] = target: T1, 3-oxo-5-alpha-steroid 4-dehydrogenase 2 (Homo sapiens, UniProt P31213); assay: Inhibition of human prostate 5alpha-reductase type 2 assessed as formation dihydrotestosterone from [4-14C] testosterone; format: tissue-based, Prostate gland
T1 sequence (P31213 whole entry): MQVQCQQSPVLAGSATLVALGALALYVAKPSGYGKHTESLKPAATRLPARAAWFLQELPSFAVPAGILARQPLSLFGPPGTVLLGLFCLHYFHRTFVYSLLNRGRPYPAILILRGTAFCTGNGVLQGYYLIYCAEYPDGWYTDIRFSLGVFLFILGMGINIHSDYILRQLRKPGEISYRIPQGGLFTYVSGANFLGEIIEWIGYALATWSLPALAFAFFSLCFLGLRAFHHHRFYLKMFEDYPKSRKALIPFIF

[2] = target: T2, 3-oxo-5-alpha-steroid 4-dehydrogenase 2 (Homo sapiens) (UniProt P31213); assay: Inhibition of human prostate 5alpha-reductase type 2 assessed as formation dihydrotestosterone from [4-14C] testosterone relative to finasteride; conditions: Prostate gland
T2 sequence (whole entry): T1 sequence (P31213 whole entry)

| IC50 [1] | Ratio [2] | Structure (SMILES) |
| --- | --- | --- |
| 0.071 µM | 0.49 | C[C@]12CCC(C(=O)O)=CC1=CC[C@@H]1[C@@H]2CC[C@]2(C)NC(=O)CC[C@@H]12 |
| > 1 µM | < 0.055 | C[C@]12CC[C@@H]3c4ccc(OS(=O)(=O)O)cc4CC[C@H]3[C@@H]1CCC(=O)N2 |
| 0.035 µM | – | CC(C)(C)NC(=O)[C@H]1CC[C@H]2[C@@H]3CC[C@H]4NC(=O)C=C[C@]4(C)[C@H]3CC[C@]12C [FINASTERIDE] |
| > 1 µM | < 0.055 | C[C@]12CC[C@@H]3c4ccc(O)cc4CC[C@H]3[C@@H]1CCC(=O)N2 |
